# Where “and” joins values, the source holds several entries; their conditions need not be identical. Equal entries are not always repeated. Entries after “also recorded” stand apart in the source; their conditions may differ.
# Assays:
# [1] = molecular target: T1, delta opioid receptor (DOR) (Homo sapiens, UniProt P41143); experiment: Competitive radioligand binding, DOR ([3H]NTI); conditions: read-out: Ki (nM) ± SEM
# T1 construct: expressed in transfected cells; host or cells: CHO cells (membranes)
# Method: The details of the Radioligand Binding and Functional Studies that were used were described previously.^19 Chinese hamster ovarian (CHO) cell lines were used as monoclonal opioid receptor expressing cells. The μ, δ, and κ opioid receptors were labeled with [^3H]naloxone, ^3H-naltrindole ([^3H]NTI) and ^3H-nor-Binaltorphimine ([^3H]norBNI). The opioid receptor expressing cell membranes were incubated with the radioligands at different concentrations of the drug under investigation at 30° C. for 1 h. With the absence and presence of 10 μM naltrexone, specific binding was got as the difference in binding obtained. The specific binding of the drugs to the radioligand was calculated from data using linear regression analysis of Hill plots.
# (§1) All samples were assayed in triplicate and repeated at least twice for a total of 3 independent determinations. Results were reported as mean values±SEM. Concentration-effect curves were fit by nonlinear regression to a one-site binding model, using GraphPad Prism software, to determine EC50 and Emax values. IC50 values were obtained from Hill plots and analyzed by linear regression using Microsoft Excel software. Binding Ki values were determined from IC50 values using the Cheng-Prusoff equation: Ki=IC50/l+([L]/KD), where [L] is the concentration of […] and KD is the KD of the radioligand.
# [2] = molecular target: T2, DOR (Homo sapiens, UniProt P41143); experiment: [35S]GTPγS-binding assay, DOR-expressing CHO cell membranes; type: biochemical
# T2 construct: expressed in transfected cells; host or cells: CHO cells (membranes)
# Method: [^35S]-GTPγS-Binding Assays using DOR- or KOR-Expressing CHO Cell Lines: Cell membranes (10 μg protein) were incubated with 10 μM GDP and 0.1 nM [^35S]-GTPγS in assay buffer in the presence and absence of varying concentrations of BNAP, 3 μM SNC80 (standard full agonist at DOR) or 3 μM U50,488H (standard full agonist at KOR) for 90 min at 30° C. Nonspecific binding was determined with 10 μM unlabeled GTPγS. The reaction was terminated and bound radioactivity determined as described above and previously.^9
# as §1
# [3] = test system: mouse distal colon circular muscle; experiment: Colon circular muscle isometric tension recordings, distal colon
# Method: (§2) Mice were euthanized by cervical dislocation. The colon was dissected, flushed of its contents, and trimmed of mesentery. […] The tissues, 0.5 cm in length, were suspended vertically along the axis of the circular muscle with a metal triangle tied to a hook under 1 g of passive tension in 15 mL siliconized organ baths.
# (§3) Data are presented as the mean±S.E.M, values of P≤0.05 were considered significant.
# [4] = test system: mouse proximal colon circular muscle; experiment: Colon circular muscle isometric tension recordings, proximal colon
# Method: as §2, §3
# [5] = test system: intestinal transit; experiment: Charcoal meal test for gastrointestinal transit; type: in vivo, mice
# Method: Forty-eight hours before testing, mice were placed in cages with raised mesh wire to suspend them above their bedding and prevent ingestion of feces or bedding. The animals were habituated for 24 h in the presence of food and water and then fasted for 24 h with free access to water as previously reported.^24 This time frame was chosen to deplete the intestine and colon of any feces. To maintain caloric intake and to avoid hypoglycemia, mice had access to a sugar water solution consisting of a final concentration of 5% dextrose for the first 8 h of the fasting period. […] At 30 min after the administration of the charcoal meal, the mice were euthanized by cervical dislocation, and the small intestine from the jejunum to the cecum was dissected and placed in cold saline to stop peristalsis. The distance traveled by the leading edge of the charcoal meal was measured relative to the total length of the small intestine, and the percentage of intestinal transit for each animal was calculated as percentage transit (charcoal distance)/(small intestinal length)×100. This is referred to as intestinal transit in the text.
# [6] = test system: visceral pain (abdominal stretches); experiment: Acetic acid induced writhing assay; type: in vivo, Swiss Webster mice
# Method: To determine whether BNAP provides KOR mediated analgesia acetic acid-induced abdominal stretches were counted in mice. Swiss Webster mice were allowed to acclimate in individual testing cages for at least 10 min. Following the acclimation period the vehicle or BNAP was administered via s.c injection at the specified dose. After waiting for 10 min the mice were injected intraperitoneally with 10 mL/kg 0.6% (wt/vol) acetic acid and returned to their observation chambers. After the first 3 min, the number of stretches and abdominal contractions were counted for 15 min. All values shown for abdominal stretching experiments represent separate groups of mice (n=4-8) as each animal was tested only once and euthanized immediately after testing.
# In order to confirm the involvement of the KOR in the analgesia produced by BNAP in the Acetic Acid Induced Writhing test, this test was performed in the presence of the KOR-specific antagonist nor-Binaltorphimine 2HCl (nor-BNI). According to previous literature, nor-BNI antagonist activity reaches optimal selectivity and efficacy in the writhing test at 24 hours post administration.^27, 28 These animals were injected sub-cutaneously with either 10 mg/kg nor-BNI or saline 24 hours prior to initiation of the writhing test. The writhing test was then performed as described above (n=5-6).
# [7] = molecular target: MOR (Mus musculus, UniProt P42866); experiment: [35S]GTPγS-binding assay, low MOR-expressing CHO cell line membranes; type: biochemical; design: expressed in transfected cells; host or cells: CHO cells (membranes)
# Method: [^35S]GTPγS-binding Assays using a Low MOR-expressing CHO Cell Line: Cell membranes were incubated with varying concentrations of BNAP or 3 μM DAMGO (standard full agonist at MOR) in the presence of 10 μM GDP and 0.1 nM [^35S]GTPγS in assay buffer (50 mM Tris-HCl, pH 7.4, 3 mM MgCl2, 0.2 mM EGTA and 100 mM NaCl) for 90 min at 30° C. Nonspecific binding was determined using 10 μM unlabeled GTPγS. The incubation was terminated by rapid vacuum filtration through GF/B glass fiber filters. Bound radioactivity was determined by liquid scintillation spectrophotometry. Additional methodological details of the assay were described previously.^9
# as §1
# T2 sequence (P41143 whole entry): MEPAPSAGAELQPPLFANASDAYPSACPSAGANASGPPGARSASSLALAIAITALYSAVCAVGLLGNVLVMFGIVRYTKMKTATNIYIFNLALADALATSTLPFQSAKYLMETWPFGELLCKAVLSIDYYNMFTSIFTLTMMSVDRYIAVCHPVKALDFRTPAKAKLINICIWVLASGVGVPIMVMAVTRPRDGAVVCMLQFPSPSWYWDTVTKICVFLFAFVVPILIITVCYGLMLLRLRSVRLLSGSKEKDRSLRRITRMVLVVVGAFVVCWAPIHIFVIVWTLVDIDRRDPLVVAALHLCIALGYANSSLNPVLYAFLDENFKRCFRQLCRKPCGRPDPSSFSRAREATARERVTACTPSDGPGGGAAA
# MOR, sequence (P42866 whole entry): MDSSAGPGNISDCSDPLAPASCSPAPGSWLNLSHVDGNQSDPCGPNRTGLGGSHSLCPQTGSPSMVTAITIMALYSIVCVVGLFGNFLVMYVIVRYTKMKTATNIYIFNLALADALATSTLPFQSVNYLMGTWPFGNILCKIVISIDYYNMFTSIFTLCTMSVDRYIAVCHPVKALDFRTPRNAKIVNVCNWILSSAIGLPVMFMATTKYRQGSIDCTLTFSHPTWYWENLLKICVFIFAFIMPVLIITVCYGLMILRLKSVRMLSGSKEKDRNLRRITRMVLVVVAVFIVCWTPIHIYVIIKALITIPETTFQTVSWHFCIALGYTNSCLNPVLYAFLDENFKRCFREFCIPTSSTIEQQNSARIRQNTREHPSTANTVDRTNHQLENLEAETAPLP
# T1 sequence (P41143 whole entry): as the sequence (P41143 whole entry) above
compound,measurement,setting,value
O=C(N[C@@H]1CC[C@@]2(O)[C@H]3Cc4ccc(O)c5c4[C@@]2(CCN3CC2CC2)C1O5)c1cc[n+](Cc2ccccc2)cc1 (stereo partly drawn) [BNAP],Ki,[1],722 ± 65 nM
same,EC50,[2]; 35S-GTP[γS],108 ± 69 nM
same,% max of agonist,[2]; Emax relative to full agonist SNC80,9.2±2.2%
same,inhibition of morphine-induced contractions,"[3]; 1 nM antagonist, distal colon",neither NAP nor BNAP showed significant inhibition of morphine-induced contractions
same,antagonism of morphine effects,"[3]; 10 nM antagonist, distal colon",neither NAP nor BNAP showed significant antagonism of morphine effects
same,morphine pD2 in presence of antagonist,"[3]; 100 nM antagonist, distal colon (naive 6.0)",5.2
same,contractions induced by compound alone,"[3]; up to 30 μM, distal colon preparation",Neither BNAP nor NAP alone at concentrations up to 30 μM induced contractions
same,inhibition of morphine-induced contractions,"[4]; 1 nM antagonist, proximal colon",neither NAP nor BNAP showed significant inhibition of morphine-induced contractions
same,morphine pD2 in presence of antagonist,"[4]; 10 nM antagonist, proximal colon (naive 6.8)",5.9
same,further reduction of morphine pD2,"[4]; 100 nM versus 10 nM antagonist, proximal colon",no further reduction of the morphine pD2
same,contractions induced by compound alone,"[4]; up to 30 μM, proximal colon preparation",Neither BNAP nor NAP alone at concentrations up to 30 μM induced contractions
same,reduction of intestinal motility,"[5]; charcoal gavage, compound alone",1.5 fold
same,reversal of morphine induced inhibition of intestinal motility,[5]; mice treated acutely with morphine,unable to reverse morphine induced inhibition of intestinal motility
same,analgesia in presence of nor-BNI,"[6]; 10 mg/kg nor-BNI s.c. 24 h before, morphine pelleted animals",effectively blocked the analgesia produced by BNAP
same,active concentration in hypernociceptive model,[6]; mice chronically treated with 75 mg morphine pellet,active at three fold lower concentration; also recorded: active at concentrations three-fold lower
same,number of writhes,"[6]; s.c., naive mice",dose dependently reduced the number of writhes
same,EC50,"[7]; EC50 (nM), 35S-GTP[γS]",4.84 nM and 4.8 nM
same,% max of agonist,[7]; Emax relative to full agonist DAMGO,14.6±0.9%

# — patent US20190308987A1, “DUAL MODULATORS OF BOTH MU AND KAPPA OPIOID RECEPTORS” (priority 2016, published 2019)
